Measured values published in patent publication US10787413B2, “Derivatives of curcuminoids and use thereof as an anticancer agent” (CHINA MEDICAL UNIVERSITY, priority 2016, dated 2020).

Tested on: MDA-MB-231 cells
Test: cDNA microarray
Format: cell-based, human
Method: The cells were incubated with or without 21a. After exposure, cell pellets were collected, and the total RNA from each treatment was purified using the Qiagen RNeasy Mini Kit (Qiagen, Valencia, Calif., USA). The RNA purity was determined to check the quality at 260/280 nm using a NanoDrop 1000 Spectrophotometer (Thermo Fisher Scientific, Wilmington, Del., USA). mRNA was amplified and labeled using the Gene-Chip WT Sense Target Labeling and Control Reagents kit (Affymetrix, Santa Clara, Calif., USA) for expression analysis. The synthesized cDNA was labeled with fluorescence and then hybridized for 17 h using AffymetrixGeneChip Human Gene 1.0 ST array (Affymetrix) to determine microarray hybridization following the manufacturer's protocols. The arrays were subsequently washed using Fluidics Station 450 (Affymetrix), stained with streptavidin-phycoerythrin (Gene-Chip Hybridization, Wash, and Stain kit, Affymetrix), and scanned on a GeneChip Scanner 3000 (Affymetrix). The localized concentrations of fluorescent molecules were quantitated and analyzed using Expression Console Software (Affymetrix) with default RMA parameters as previously described (Chang et al. 2012; Liu et al. 2013). […]

COc1cc(/C=C/C(=O)/C=C(O)/C=C/c2ccc(OC(=O)C(C)(CO)CO)c(OC)c2)ccc1OC(=O)C(C)(CO)CO [Compound 21a, ((1E,3Z,6E)-3-Hydroxy-5-oxohepta-1,3,6-triene-1,7-diyl)bis(2-methoxy-4,1-phenylene) bis(3-hydroxy-2-(hydroxymethyl)-2-methylpropenoate)]
genes down-regulated (at least 2.5 folds): 28 genes
genes up-regulated (at least 2.5 folds): 69 genes
log2 (Ratio) ATF3 (mRNA, MDA-MB-231 cells, 24-h treatment, ID PH_hs_0000057): 3.698
log2 (Ratio) IL12A (mRNA, MDA-MB-231 cells, 24-h treatment, ID PH_hs_0000076): 4.587
log2 (Ratio) DUSP2 (mRNA, MDA-MB-231 cells, 24-h treatment, ID PH_hs_0000156): 4.094
log2 (Ratio) SRGN (mRNA, MDA-MB-231 cells, 24-h treatment, ID PH_hs_0000255): 2.917
log2 (Ratio) MMP10 (mRNA, MDA-MB-231 cells, 24-h treatment, ID PH_hs_0000305): 4.942
log2 (Ratio) SLC25A25 (mRNA, MDA-MB-231 cells, 24-h treatment, ID PH_hs_0000566): 2.529
log2 (Ratio) DNAJB9 (mRNA, MDA-MB-231 cells, 24-h treatment, ID PH_hs_0000684): 3.854
log2 (Ratio) RND3 (mRNA, MDA-MB-231 cells, 24-h treatment, ID PH_hs_0000694): 2.626
log2 (Ratio) SESN2 (mRNA, MDA-MB-231 cells, 24-h treatment, ID PH_hs_0000852): 3.324
log2 (Ratio) OMA1 (mRNA, MDA-MB-231 cells, 24-h treatment, ID PH_hs_0000866): −2.613
log2 (Ratio) SENP5 (mRNA, MDA-MB-231 cells, 24-h treatment, ID PH_hs_0001262): 2.748
log2 (Ratio) SAT1 (mRNA, MDA-MB-231 cells, 24-h treatment, ID PH_hs_0002492): 3.366
log2 (Ratio) OSGEN1 (mRNA, MDA-MB-231 cells, 24-h treatment, ID PH_hs_0002700): 3.513
log2 (Ratio) C18orf25 (mRNA, MDA-MB-231 cells, 24-h treatment, ID PH_hs_0002812): 2.668
log2 (Ratio) ZNF77 (mRNA, MDA-MB-231 cells, 24-h treatment, ID PH_hs_0002971): 2.665
log2 (Ratio) PDGFC (mRNA, MDA-MB-231 cells, 24-h treatment, ID PH_hs_0003147): −2.534
log2 (Ratio) SMIM13 (mRNA, MDA-MB-231 cells, 24-h treatment, ID PH_hs_0003180): 2.646
log2 (Ratio) PPP1R15A (mRNA, MDA-MB-231 cells, 24-h treatment, ID PH_hs_0004421): 5.381
log2 (Ratio) GEM (mRNA, MDA-MB-231 cells, 24-h treatment, ID PH_hs_0004561): 3.997
log2 (Ratio) MMP1 (mRNA, MDA-MB-231 cells, 24-h treatment, ID PH_hs_0004751): 3.219
log2 (Ratio) LMNB1 (mRNA, MDA-MB-231 cells, 24-h treatment, ID PH_hs_0004988): −2.878
log2 (Ratio) ZFAND2A (mRNA, MDA-MB-231 cells, 24-h treatment, ID PH_hs_0006387): 6.274
log2 (Ratio) F2R (mRNA, MDA-MB-231 cells, 24-h treatment, ID PH_hs_0007383): −2.717
log2 (Ratio) TOP2A (mRNA, MDA-MB-231 cells, 24-h treatment, ID PH_hs_0009437): −3.052
log2 (Ratio) DUSP1 (mRNA, MDA-MB-231 cells, 24-h treatment, ID PH_hs_0010276): 4.189
log2 (Ratio) TXNIP|LOC101060503 (mRNA, MDA-MB-231 cells, 24-h treatment, ID PH_hs_0010634): −2.66
log2 (Ratio) H1F0 (mRNA, MDA-MB-231 cells, 24-h treatment, ID PH_hs_0012629): −2.89
log2 (Ratio) BRF2 (mRNA, MDA-MB-231 cells, 24-h treatment, ID PH_hs_0014119): 2.572
log2 (Ratio) HSPA1B (mRNA, MDA-MB-231 cells, 24-h treatment, ID PH_hs_0014155): 2.836
log2 (Ratio) METTL7A (mRNA, MDA-MB-231 cells, 24-h treatment, ID PH_hs_0014995): −3.653
log2 (Ratio) CLK1 (mRNA, MDA-MB-231 cells, 24-h treatment, ID PH_hs_0020147): 2.804
log2 (Ratio) DNAJC3 (mRNA, MDA-MB-231 cells, 24-h treatment, ID PH_hs_0021974): 3.011
log2 (Ratio) CLCF1 (mRNA, MDA-MB-231 cells, 24-h treatment, ID PH_hs_0022919): 2.961
log2 (Ratio) FRS2 (mRNA, MDA-MB-231 cells, 24-h treatment, ID PH_hs_0023008): 3.242
log2 (Ratio) C21orf91 (mRNA, MDA-MB-231 cells, 24-h treatment, ID PH_hs_0023556): 2.733
log2 (Ratio) HSPA5 (mRNA, MDA-MB-231 cells, 24-h treatment, ID PH_hs_0023711): 2.599
log2 (Ratio) BBS2 (mRNA, MDA-MB-231 cells, 24-h treatment, ID PH_hs_0023845): −3.269
log2 (Ratio) CBY1 (mRNA, MDA-MB-231 cells, 24-h treatment, ID PH_hs_0023862): −2.551
log2 (Ratio) TRIB3 (mRNA, MDA-MB-231 cells, 24-h treatment, ID PH_hs_0023894): 2.584
log2 (Ratio) CDKN1A (mRNA, MDA-MB-231 cells, 24-h treatment, ID PH_hs_0024155): 2.904
log2 (Ratio) ATP2A2 (mRNA, MDA-MB-231 cells, 24-h treatment, ID PH_hs_0024236): 2.548
log2 (Ratio) DNAJB4 (mRNA, MDA-MB-231 cells, 24-h treatment, ID PH_hs_0024315): 3.075
log2 (Ratio) C3orf52 (mRNA, MDA-MB-231 cells, 24-h treatment, ID PH_hs_0025319): 3.562
log2 (Ratio) CLU (mRNA, MDA-MB-231 cells, 24-h treatment, ID PH_hs_0025525): 3.198
log2 (Ratio) CTDSP1 (mRNA, MDA-MB-231 cells, 24-h treatment, ID PH_hs_0025966): −2.552
log2 (Ratio) RMND5A (mRNA, MDA-MB-231 cells, 24-h treatment, ID PH_hs_0027152): 3.038
log2 (Ratio) SLC3A2 (mRNA, MDA-MB-231 cells, 24-h treatment, ID PH_hs_0027162): 2.961
